{"source": "ChEMBL document CHEMBL1145306", "about": "“Synthesis of 2-C-hydroxymethylribofuranosylpurines as potent anti-hepatitis C virus (HCV) agents” (2006)", "key": {"Hepatitis C virus [1]": {"system": "Hepatitis C virus", "assay": "Antiviral activity against HCV in Huh7 cell line at 1 uM assessed as reduction in luciferase activity", "format": "functional, Hepacivirus hominis", "conditions": "Huh-7"}, "Hepatitis C virus [2]": {"system": "Hepatitis C virus", "assay": "Antiviral activity against HCV in Huh7 cell line at 10 uM assessed as reduction in luciferase activity", "format": "functional, Hepacivirus hominis", "conditions": "Huh-7"}}}
{"smiles": "Nc1ncnc2c1ncn2[C@@H]1O[C@H](CO)[C@@H](O)[C@]1(O)CO", "values": [{"measurement": "inhibition at 1 µM", "setting": "Hepatitis C virus [1]", "value": 2, "unit": "%"}, {"measurement": "inhibition at 10 µM", "setting": "Hepatitis C virus [2]", "value": 50, "unit": "%"}]}
